The text below walks through data of ChEMBL document CHEMBL4699645 (2020).

Experiment [1] has as its target Neuronal acetylcholine receptor; alpha3/beta2 (Rattus norvegicus, UniProt P04757+P12390). Put plainly: Antagonist activity at rat alpha3beta2 nAChR expressed in Xenopus laevis oocytes assessed as inhibition of Ach-induced response at -70 mV holding potential incubated for 5 mins by voltage-clamp assay. It counts as cell-based, Oocyte.
Experiment [2] deals with Neuronal acetylcholine receptor; alpha3/beta4 (Rattus norvegicus, UniProt P04757+P12392). Put plainly: Antagonist activity at rat alpha3beta4 nAChR expressed in Xenopus laevis oocytes assessed as inhibition of Ach-induced response at -70 mV holding potential incubated for 5 mins by voltage-clamp assay. It counts as cell-based, Oocyte.
Neuronal acetylcholine receptor; alpha3/beta4, sequence (P04757 whole entry): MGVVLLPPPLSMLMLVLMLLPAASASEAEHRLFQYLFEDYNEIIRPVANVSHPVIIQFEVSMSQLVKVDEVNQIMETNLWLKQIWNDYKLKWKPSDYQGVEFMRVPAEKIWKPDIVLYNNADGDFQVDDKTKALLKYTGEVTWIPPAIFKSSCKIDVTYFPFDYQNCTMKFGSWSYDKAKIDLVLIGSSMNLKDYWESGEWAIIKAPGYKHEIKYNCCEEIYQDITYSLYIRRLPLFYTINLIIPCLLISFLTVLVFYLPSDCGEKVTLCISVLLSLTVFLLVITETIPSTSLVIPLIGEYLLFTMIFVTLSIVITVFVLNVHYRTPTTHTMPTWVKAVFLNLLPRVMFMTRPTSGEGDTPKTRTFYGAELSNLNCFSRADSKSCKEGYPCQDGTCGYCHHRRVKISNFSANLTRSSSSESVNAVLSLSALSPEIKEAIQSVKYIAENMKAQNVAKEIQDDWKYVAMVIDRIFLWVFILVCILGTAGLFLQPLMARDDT
Neuronal acetylcholine receptor; alpha3/beta4, sequence (P12392 whole entry): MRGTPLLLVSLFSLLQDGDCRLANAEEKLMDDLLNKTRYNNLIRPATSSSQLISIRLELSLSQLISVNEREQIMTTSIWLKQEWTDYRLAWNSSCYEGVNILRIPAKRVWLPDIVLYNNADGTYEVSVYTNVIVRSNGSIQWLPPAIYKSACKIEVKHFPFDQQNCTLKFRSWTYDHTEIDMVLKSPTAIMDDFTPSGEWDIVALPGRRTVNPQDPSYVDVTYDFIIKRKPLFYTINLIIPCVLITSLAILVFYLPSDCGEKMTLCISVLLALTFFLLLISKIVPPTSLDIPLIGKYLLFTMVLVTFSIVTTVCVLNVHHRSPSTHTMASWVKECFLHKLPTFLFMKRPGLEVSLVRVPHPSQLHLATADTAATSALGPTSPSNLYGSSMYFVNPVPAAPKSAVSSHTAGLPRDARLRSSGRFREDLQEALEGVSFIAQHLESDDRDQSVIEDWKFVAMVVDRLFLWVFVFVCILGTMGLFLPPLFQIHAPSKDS
Experiment [3] deals with Oocyte. Put plainly: Antagonist activity at rat alpha3beta2 nAChR S168I mutant expressed in Xenopus laevis oocytes assessed as inhibition of Ach-induced response by measuring recovery of ACh-induced response time at 10 nM with -70 mV holding potential measured after 5 mins voltage-clamp assay. It counts as cell-based.
For a further experiment, the system named is Hi-5. Put plainly: Displacement of [125I]-alpha-bungarotoxin from Aplysia californica C-terminal His6-tagged N-terminal gp67 signal peptide-tagged acetylcholine receptor binding protein expressed in Hi5 insect cells preincubated for 3 hrs followed by [125I]-alpha-bungarotoxin measured after 5 mins by radioligand binding assay relative to LvIA IC50. Particulars: time 185.0 min. (Displacement assays read how much labelled ligand stays bound in the presence of the test substance.)

Experiment [4] is described as follows: Antagonist activity at rat alpha3beta2 nAChR S168I mutant expressed in Xenopus laevis oocytes assessed as inhibition of Ach-induced response at -70 mV holding potential measured after 5 mins by voltage-clamp assay. To be noted: Oocyte. The format is cell-based.
In experiment [5] the target is T1, Neuronal acetylcholine receptor; alpha3/beta2 (Rattus norvegicus) (UniProt P04757+P12390). Put plainly: Antagonist activity at rat alpha3beta2 nAChR expressed in Xenopus laevis oocytes assessed as inhibition of Ach-induced response at -70 mV holding potential incubated for 5 mins by voltage-clamp assay relative to LvIA IC50. It counts as cell-based. To be noted: Oocyte.

Experiment [6] is described as follows: Displacement of [125I]-alpha-bungarotoxin from Aplysia californica C-terminal His6-tagged N-terminal gp67 signal peptide-tagged acetylcholine receptor binding protein expressed in Hi5 insect cells preincubated for 3 hrs followed by [125I]-alpha-bungarotoxin measured after 5 mins by radioligand binding assay.
The target of experiment [7] is Neuronal acetylcholine receptor; alpha3/beta4 (Rattus norvegicus) (UniProt P04757+P12392). Kind of experiment: Antagonist activity at rat alpha3beta4 nAChR expressed in Xenopus laevis oocytes assessed as inhibition of Ach-induced response at -70 mV holding potential incubated for 5 mins by voltage-clamp assay relative to LvIA IC50. It counts as cell-based. To be noted: Oocyte.

The target in experiment [8] is T1, Neuronal acetylcholine receptor; alpha3/beta2 (Rattus norvegicus). Put plainly: Antagonist activity at rat alpha3beta2 nAChR expressed in Xenopus laevis oocytes assessed as inhibition of Ach-induced response by measuring recovery of ACh-induced response time at 10 nM with -70 mV holding potential measured after 5 mins voltage-clamp assay. The format is cell-based. To be noted: Oocyte.

The species named for another experiment is Rattus norvegicus. Kind of experiment: Selectivity index, ratio of IC50 for rat alpha3beta4 nAChR expressed in Xenopus laevis oocytes to IC50 for rat alpha3beta2 nAChR expressed in Xenopus laevis oocytes. It counts as cell-based.
Experiment [9] in a line: Antagonist activity at rat alpha3beta2 nAChR S113R mutant expressed in Xenopus laevis oocytes assessed as inhibition of Ach-induced response at -70 mV holding potential measured after 5 mins by voltage-clamp assay. The format is cell-based. To be noted: Oocyte.
Experiment [10] can be described thus: Antagonist activity at rat alpha3beta2 nAChR Y114S mutant expressed in Xenopus laevis oocytes assessed as inhibition of Ach-induced response at -70 mV holding potential measured after 5 mins by voltage-clamp assay. The format is cell-based. Particulars: Oocyte.
Experiment [11] has as its system Oocyte. Put plainly: Antagonist activity at rat alpha3beta2 nAChR S113R mutant expressed in Xenopus laevis oocytes assessed as inhibition of Ach-induced response at 10 nM at -70 mV holding potential measured after 5 mins by voltage-clamp assay relative to control. It counts as cell-based. Particulars: filed as antagonist.
Experiment [12] in a line: Antagonist activity at rat alpha3beta2 nAChR D165P mutant expressed in Xenopus laevis oocytes assessed as inhibition of Ach-induced response at -70 mV holding potential measured after 5 mins by voltage-clamp assay. The format is cell-based. To be noted: Oocyte.
The nature of experiment [13]: Antagonist activity at rat alpha3beta2 nAChR S108T mutant expressed in Xenopus laevis oocytes assessed as inhibition of Ach-induced response at -70 mV holding potential measured after 5 mins by voltage-clamp assay. Particulars: Oocyte. It counts as cell-based.
Experiment [14] is described as follows: Antagonist activity at rat alpha3beta2 nAChR F106V mutant expressed in Xenopus laevis oocytes assessed as inhibition of Ach-induced response at -70 mV holding potential measured after 5 mins by voltage-clamp assay. It counts as cell-based. To be noted: Oocyte.
A short description of experiment [15]: Antagonist activity at rat alpha3beta2 nAChR V166T mutant expressed in Xenopus laevis oocytes assessed as inhibition of Ach-induced response at -70 mV holding potential measured after 5 mins by voltage-clamp assay. The format is cell-based. Particulars: Oocyte.
Experiment [16] in a line: Antagonist activity at rat alpha3beta2 nAChR L169M mutant expressed in Xenopus laevis oocytes assessed as inhibition of Ach-induced response at -70 mV holding potential measured after 5 mins by voltage-clamp assay. It counts as cell-based. To be noted: Oocyte.
Experiment [17] deals with T1, Neuronal acetylcholine receptor; alpha3/beta2 (Rattus norvegicus). Put plainly: Antagonist activity at wild type rat alpha3beta2 nAChR expressed in Xenopus laevis oocytes assessed as inhibition of Ach-induced response at 1 uM at -70 mV holding potential measured after 5 mins by voltage-clamp assay relative to control. The format is cell-based. Particulars: Oocyte, filed as antagonist.

Experiment [18] has the same target. Kind of experiment: Antagonist activity at rat wild-type alpha3beta2 nAChR expressed in Xenopus laevis oocytes assessed as inhibition of Ach-induced response at 10 nM at -70 mV holding potential measured after 5 mins by voltage-clamp assay relative to control. The format is cell-based. To be noted: Oocyte.
In experiment [19] the test system is Oocyte. Put plainly: Antagonist activity at rat alpha3beta2 nAChR S108T mutant expressed in Xenopus laevis oocytes assessed as inhibition of Ach-induced response at 1 uM at -70 mV holding potential measured after 5 mins by voltage-clamp assay relative to control. The format is cell-based.
Experiment [20] has as its system Oocyte. Kind of experiment: Antagonist activity at rat alpha3beta2 nAChR F106V mutant expressed in Xenopus laevis oocytes assessed as inhibition of Ach-induced response at 1 uM at -70 mV holding potential measured after 5 mins by voltage-clamp assay relative to control. The format is cell-based. To be noted: filed as antagonist.
For experiment [21], the system named is Oocyte. Put plainly: Antagonist activity at rat alpha3beta2 nAChR S168I mutant expressed in Xenopus laevis oocytes assessed as inhibition of Ach-induced response at 10 nM at -70 mV holding potential measured after 5 mins by voltage-clamp assay relative to control. The format is cell-based. To be noted: filed as antagonist.
Experiment [22] can be described thus: Antagonist activity at rat alpha3beta2 nAChR D115N mutant expressed in Xenopus laevis oocytes assessed as inhibition of Ach-induced response at -70 mV holding potential measured after 5 mins by voltage-clamp assay. The format is cell-based. To be noted: Oocyte.
Experiment [23] in a line: Antagonist activity at rat alpha3beta2 nAChR A110V mutant expressed in Xenopus laevis oocytes assessed as inhibition of Ach-induced response at -70 mV holding potential measured after 5 mins by voltage-clamp assay. The format is cell-based. Particulars: Oocyte.

Where a SMILES comes first, the peptide text is derived from it. Bridges are numbered along the chain shown (N, C = ends). Where only a bound is given, the exact number is not on record here.

Neuronal acetylcholine receptor; alpha3/beta2, sequence (P04757 whole entry): as the sequence (P04757 whole entry) above
Neuronal acetylcholine receptor; alpha3/beta2, sequence (P12390 whole entry): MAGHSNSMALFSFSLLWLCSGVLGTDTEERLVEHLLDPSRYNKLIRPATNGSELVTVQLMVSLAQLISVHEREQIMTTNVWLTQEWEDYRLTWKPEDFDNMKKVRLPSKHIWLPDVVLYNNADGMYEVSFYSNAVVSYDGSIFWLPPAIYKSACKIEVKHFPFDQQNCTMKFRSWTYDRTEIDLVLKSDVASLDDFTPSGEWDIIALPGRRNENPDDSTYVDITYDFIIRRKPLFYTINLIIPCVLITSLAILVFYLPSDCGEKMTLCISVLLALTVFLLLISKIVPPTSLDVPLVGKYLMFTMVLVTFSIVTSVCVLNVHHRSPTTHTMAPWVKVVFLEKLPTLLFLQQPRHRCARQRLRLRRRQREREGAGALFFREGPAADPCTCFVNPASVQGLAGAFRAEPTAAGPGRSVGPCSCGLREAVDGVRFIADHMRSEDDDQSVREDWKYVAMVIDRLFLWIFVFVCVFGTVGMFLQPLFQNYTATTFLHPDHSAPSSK

Take `CC[C@H](C)[C@@H]1NC(=O)[C@H](CCC(=O)O)NC(=O)[C@@H]2CCCN2C(=O)[C@H](Cc2cnc[nH]2)NC(=O)[C@H](CC(=O)O)NC(=O)[C@H](C(C)C)NC(=O)[C@H](C)NC(=O)[C@@H]2CSSC[C@H](NC(=O)CN)C(=O)N[C@@H](CSSC[C@@H](C(N)=O)NC1=O)C(=O)N[C@@H](CO)C(=O)N[C@@H](Cc1cnc[nH]1)C(=O)N1CCC[C@H]1C(=O)N[C@@H](C)C(=O)N2` (H-GCCSHPACAVDHPEIC-NH2; disulfide 2-8, 3-16): the IC50 (commonly the concentration that inhibits the measured activity by half) in [1] is 2.1 nM; in experiment [2] it was 4270 nM; in experiment [4], 0.66 nM; in experiment [6] it was 760 nM. Besides, the values for the TIME (with Oocyte [3]; in experiment [8]) were more than 0.333 h and 0.0167 h, respectively. For the same compound, the Ratio IC50 was -0.48 in the experiment with Hi-5, 0.13 in experiment [5], 14.7 in experiment [7] and 2030 in the experiment filed under Rattus norvegicus.
As to `CC[C@H](C)[C@@H]1NC(=O)[C@H](CCC(=O)O)NC(=O)[C@H](C)NC(=O)[C@H](Cc2cnc[nH]2)NC(=O)[C@H](CC(=O)O)NC(=O)[C@H](C(C)C)NC(=O)[C@H](CC(N)=O)NC(=O)[C@@H]2CSSC[C@H](NC(=O)CN)C(=O)N[C@@H](CSSC[C@@H](C(N)=O)NC1=O)C(=O)N[C@@H](CO)C(=O)N[C@@H](Cc1cnc[nH]1)C(=O)N1CCC[C@H]1C(=O)N[C@@H](C)C(=O)N2` (H-GCCSHPACNVDHAEIC-NH2; disulfide 2-8, 3-16), the IC50 in [1] was 202 nM; in experiment [2], 543 nM; in [6], 7500 nM. Also, the Ratio IC50 in the experiment on Hi-5 was determined as 0.51; in experiment [5], 13; in experiment [7] it was 1.9; in the experiment listed under Rattus norvegicus, 2.7.
With `CC[C@H](C)[C@@H]1NC(=O)[C@H](CCC(=O)O)NC(=O)[C@@H]2CCCN2C(=O)[C@H](Cc2cnc[nH]2)NC(=O)[C@H](CC(=O)O)NC(=O)[C@H](C(C)C)NC(=O)[C@H](CC(N)=O)NC(=O)[C@@H]2CSSC[C@H](NC(=O)CN)C(=O)N[C@@H](CSSC[C@@H](C(N)=O)NC1=O)C(=O)N[C@@H](C)C(=O)N[C@@H](Cc1cnc[nH]1)C(=O)N1CCC[C@H]1C(=O)N[C@@H](C)C(=O)N2` (H-GCCAHPACNVDHPEIC-NH2; disulfide 2-8, 3-16), the IC50 in [1] stood at 54 nM; in experiment [2], 193 nM; in experiment [6], 780 nM. Further, the Ratio IC50 with Hi-5 was -0.47; in experiment [5], 3.5; in experiment [7] it was 0.7; in the experiment listed under Rattus norvegicus, 3.6.
For `CC[C@H](C)[C@@H]1NC(=O)[C@H](CCC(=O)O)NC(=O)[C@@H]2CCCN2C(=O)[C@H](Cc2cnc[nH]2)NC(=O)[C@H](CC(=O)O)NC(=O)[C@H](C(C)C)NC(=O)[C@H](CC(N)=O)NC(=O)[C@@H]2CSSC[C@H](NC(=O)[C@H](C)N)C(=O)N[C@@H](CSSC[C@@H](C(N)=O)NC1=O)C(=O)N[C@@H](CO)C(=O)N[C@@H](Cc1cnc[nH]1)C(=O)N1CCC[C@H]1C(=O)N[C@@H](C)C(=O)N2` (H-ACCSHPACNVDHPEIC-NH2; disulfide 2-8, 3-16), the results for the IC50 in experiment [1], in experiment [2] and in [6] were 375 nM, 975 nM and 11800 nM, respectively. The Ratio IC50 with Hi-5 was found to be 0.71; in experiment [5], 24; in experiment [7] it was 3.4; in the experiment filed under Rattus norvegicus, 2.6.
As to `CC[C@H](C)[C@@H]1NC(=O)[C@H](CCC(=O)O)NC(=O)[C@@H]2CCCN2C(=O)[C@H](Cc2cnc[nH]2)NC(=O)[C@H](CC(=O)O)NC(=O)[C@H](C(C)C)NC(=O)[C@H](CC(N)=O)NC(=O)[C@@H]2CSSC[C@H](NC(=O)CN)C(=O)N[C@@H](CSSC[C@@H](C(N)=O)NC1=O)C(=O)N[C@@H](CO)C(=O)N[C@@H](Cc1cnc[nH]1)C(=O)N1CCC[C@H]1C(=O)N[C@@H](C)C(=O)N2`, the IC50 in [9] is 4.1 nM; in experiment [10] it was 31.3 nM; in [12], 16.6 nM; in experiment [13] it was 1660 nM; in experiment [14], 401 nM; in [15], 31.8 nM. For the same compound, the IC50 in experiment [16] was 29.6 nM; in experiment [4], 0.7 nM; in experiment [6], 2300 nM; in experiment [22] it was 23.6 nM; in experiment [23], 54 nM. Further, the inhibition (in general, the drop in the measured response relative to a control, in per cent) in the experiment with Oocyte [11] turned out to be 91.9%; in experiment [17] it was 94.4%; in [18], 28.8%; in the experiment with Oocyte [19] it was 33.4%; in the experiment on Oocyte [20], 55%; in the experiment with Oocyte [21], 94.6%.
Take `CC[C@H](C)[C@@H]1NC(=O)[C@H](CCC(=O)O)NC(=O)[C@@H]2CCCN2C(=O)[C@H](Cc2cnc[nH]2)NC(=O)[C@H](C)NC(=O)[C@H](C(C)C)NC(=O)[C@H](CC(N)=O)NC(=O)[C@@H]2CSSC[C@H](NC(=O)CN)C(=O)N[C@@H](CSSC[C@@H](C(N)=O)NC1=O)C(=O)N[C@@H](CO)C(=O)N[C@@H](Cc1cnc[nH]1)C(=O)N1CCC[C@H]1C(=O)N[C@@H](C)C(=O)N2` (H-GCCSHPACNVAHPEIC-NH2; disulfide 2-8, 3-16): the IC50 amounted to 12 nM in [1], 67.9 nM in experiment [2] and 94 nM in experiment [6]. The Ratio IC50 is -1.39 with Hi-5, 0.8 in [5], 0.2 in experiment [7] and 5.7 in the experiment filed under Rattus norvegicus.
